Measurements from the supplement of paper PMC10307832.

The cell lines below were run with COCC[n+]1c2c(n(Cc3cnccn3)c1C)C(=O)c1ccccc1C2=O [YM155] + CCNC(=O)c1noc(-c2cc(C(C)C)c(O)cc2O)c1-c1ccc(CN2CCOCC2)cc1 [Luminespib] (partner 0.01 µM) (assay: relative viability (nuclei count vs DMSO), 5 days (fraction); higher = more cells survive). Conditions: first compound 0.06325 µM.
Procedure, shortened: (§1)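 Lung cancer cell lines, seeded in 1536-well plates, were treated the following day by pin tool with a single drug or with five library-drug doses (not always all listed) in √10 steps on top of a fixed anchor-drug dose. Cells were fixed and nuclei stained in one step after 5 days, and nuclei were counted. Relative viability is the nuclei count for treated wells divided by that for vehicle wells, reported as medians of duplicate plates.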
NCI-H2170 showed a relative viability of 0.596. Work on SW 900 yielded a relative viability of 0.177. For NCI-H2342, the relative viability was 0.746. NCI-H1650 gave a relative viability of 0.228. In the case of ChaGo-K-1, the relative viability is reported as 0.714. For NCI-H522, the relative viability was 1.28.

What follows are cell lines tested with COCC[n+]1c2c(n(Cc3cnccn3)c1C)C(=O)c1ccccc1C2=O [YM155] + C[C@]1(O)C[C@@H](c2nc(-c3ccc4ccc(-c5ccccc5)nc4c3)c3c(N)nccn32)C1 [Linsitinib] (partner 1 µM) in the same assay as above. Conditions: first compound 0.002 µM.
Procedure, shortened: as §1
In the case of EKVX, the relative viability is reported as 0.958. For EPLC-272H, the relative viability was 1.22. NCI-H520 gave a relative viability of 0.895. Cell Line NCI-H1563 has a relative viability of 1.26. In the case of NCI-H650, the relative viability is reported as 0.721. RERF-LC-KJ gave a relative viability of 0.859. HCC-827 showed a relative viability of 0.954. Work on NCI-H2087 yielded a relative viability of 0.979. SK-MES-1 showed a relative viability of 1.12. NCI-H1299 showed a relative viability of 1. Cell Line NCI-H1651 has a relative viability of 1.04. With UMC-11 the relative viability was 0.993. Cell Line NCI-H1355 has a relative viability of 0.821. H3255 was tested, and the relative viability was 1.04. For NCI-H1792, the relative viability was 0.507. With NCI-H647 the relative viability was 1.11. Work on Calu-6 yielded a relative viability of 0.946. In the case of LCLC-97TM1, the relative viability is reported as 0.2. With NCI-H1703 the relative viability was 0.474. With LXF-289 the relative viability was 0.97. For LU99A, the relative viability was 0.581. For NCI-H2023, the relative viability was 0.744. NCI-H2228 was tested, and the relative viability was 0.84. For NCI-H1437, the relative viability was 0.994. NCI-H1395 showed a relative viability of 1.11. Cell Line NCI-H2009 has a relative viability of 1.2. HCC-366 gave a relative viability of 0.683. Cell Line EBC-1 has a relative viability of 0.8. NCI-H1915 was tested, and the relative viability was 1.12. NCI-H2347 gave a relative viability of 0.965. In the case of LCLC-103H, the relative viability is reported as 0.999. ABC-1 gave a relative viability of 0.727. Cell Line NCI-H1734 has a relative viability of 0.916. HCC-78 showed a relative viability of 0.615. In the case of COR-L 105, the relative viability is reported as 1. IA-LM was tested, and the relative viability was 0.392. Work on A549 yielded a relative viability of 0.61.

Same assay, conditions: first compound 0.006325 µM
With EKVX the relative viability was 1.09. For EPLC-272H, the relative viability was 1.19. Work on NCI-H520 yielded a relative viability of 1.13. Work on NCI-H1563 yielded a relative viability of 1.38. Cell Line NCI-H650 has a relative viability of 0.857. Cell Line RERF-LC-KJ has a relative viability of 0.878. HCC-827 showed a relative viability of 1.01. NCI-H2087 showed a relative viability of 0.741. Cell Line SK-MES-1 has a relative viability of 1.07. With NCI-H1299 the relative viability was 0.962. NCI-H1651 showed a relative viability of 0.94. UMC-11 gave a relative viability of 1.05. Work on NCI-H1355 yielded a relative viability of 0.832. H3255 was tested, and the relative viability was 0.875. NCI-H1792 gave a relative viability of 0.548. For NCI-H647, the relative viability was 1.37. With Calu-6 the relative viability was 0.836. For LCLC-97TM1, the relative viability was 0.183. NCI-H1703 showed a relative viability of 1.25. Cell Line LXF-289 has a relative viability of 0.86. In the case of LU99A, the relative viability is reported as 0.503. Cell Line NCI-H2023 has a relative viability of 0.699. NCI-H2228 gave a relative viability of 0.628. NCI-H1437 showed a relative viability of 1.05. NCI-H1395 showed a relative viability of 0.889. For NCI-H2009, the relative viability was 1.25. HCC-366 gave a relative viability of 0.61. EBC-1 gave a relative viability of 0.925. For NCI-H1915, the relative viability was 1.05. With NCI-H2347 the relative viability was 0.93. In the case of LCLC-103H, the relative viability is reported as 0.974. ABC-1 showed a relative viability of 0.457. For NCI-H1734, the relative viability was 0.811. With HCC-78 the relative viability was 0.494. COR-L 105 gave a relative viability of 1.13. In the case of IA-LM, the relative viability is reported as 0.697. A549 gave a relative viability of 0.576.

Same assay, conditions: first compound 0.02 µM
Work on EKVX yielded a relative viability of 1.04. With EPLC-272H the relative viability was 1.1. Cell Line NCI-H520 has a relative viability of 1.04. NCI-H1563 showed a relative viability of 1.24. In the case of NCI-H650, the relative viability is reported as 0.966. Cell Line RERF-LC-KJ has a relative viability of 0.923. Cell Line HCC-827 has a relative viability of 0.928. Work on NCI-H2087 yielded a relative viability of 0.861. Cell Line SK-MES-1 has a relative viability of 1.12. NCI-H1299 was tested, and the relative viability was 1. NCI-H1651 showed a relative viability of 1. Work on UMC-11 yielded a relative viability of 1.02. For NCI-H1355, the relative viability was 0.948. For H3255, the relative viability was 0.917. Cell Line NCI-H1792 has a relative viability of 0.552. Cell Line NCI-H647 has a relative viability of 0.996. For Calu-6, the relative viability was 0.848. Cell Line LCLC-97TM1 has a relative viability of 0.161. In the case of NCI-H1703, the relative viability is reported as 0.622. LXF-289 gave a relative viability of 0.999. LU99A showed a relative viability of 0.554. NCI-H2023 showed a relative viability of 0.659. With NCI-H2228 the relative viability was 0.917. For NCI-H1437, the relative viability was 0.989. NCI-H1395 showed a relative viability of 1.09. With NCI-H2009 the relative viability was 1.13. In the case of HCC-366, the relative viability is reported as 0.659. For EBC-1, the relative viability was 0.864. With NCI-H1915 the relative viability was 1.1. For NCI-H2347, the relative viability was 1.1. LCLC-103H gave a relative viability of 1.16. In the case of ABC-1, the relative viability is reported as 0.153. Cell Line NCI-H1734 has a relative viability of 0.889. With HCC-78 the relative viability was 0.486. COR-L 105 showed a relative viability of 1.04. For IA-LM, the relative viability was 0.745. Work on A549 yielded a relative viability of 0.544.

Same assay, conditions: first compound 0.06325 µM
EKVX showed a relative viability of 0.697. With EPLC-272H the relative viability was 1.06. In the case of NCI-H520, the relative viability is reported as 0.957. Cell Line NCI-H1563 has a relative viability of 1.28. Work on NCI-H650 yielded a relative viability of 0.784. For RERF-LC-KJ, the relative viability was 0.864. In the case of HCC-827, the relative viability is reported as 0.941. NCI-H2087 was tested, and the relative viability was 0.868. With SK-MES-1 the relative viability was 0.964. NCI-H1299 was tested, and the relative viability was 0.88. In the case of NCI-H1651, the relative viability is reported as 0.642. For UMC-11, the relative viability was 1.03. NCI-H1355 showed a relative viability of 0.875. In the case of H3255, the relative viability is reported as 0.981. For NCI-H1792, the relative viability was 0.626. NCI-H647 gave a relative viability of 0.857. Calu-6 was tested, and the relative viability was 0.175. Work on LCLC-97TM1 yielded a relative viability of 0.212. NCI-H1703 was tested, and the relative viability was 0.411. Work on LXF-289 yielded a relative viability of 0.828. With LU99A the relative viability was 0.545. For NCI-H2023, the relative viability was 0.305. Cell Line NCI-H2228 has a relative viability of 0.825. Work on NCI-H1437 yielded a relative viability of 0.878. For NCI-H1395, the relative viability was 1.14. NCI-H2009 showed a relative viability of 0.217. For HCC-366, the relative viability was 0.676. With EBC-1 the relative viability was 0.755. NCI-H1915 gave a relative viability of 1.01. NCI-H2347 gave a relative viability of 0.618. Work on LCLC-103H yielded a relative viability of 1.16. In the case of ABC-1, the relative viability is reported as 0.233. NCI-H1734 showed a relative viability of 0.979. For HCC-78, the relative viability was 0.598. Work on COR-L 105 yielded a relative viability of 0.672. With IA-LM the relative viability was 0.373. For A549, the relative viability was 0.732.
